Assay [1] concerns S-protein. The following applies: cited from earlier work.
Assay [2] has as its system Ribonuclease S. Kind of assay: Ribonuclease S activity, degradation of yeast polymeric RNA (absorbance at 255 nm). The class given is biochemical, bovine. The note with it: for effect on RNase S activity (in words): consecutive addition to S-protein + bS15 reaction mix; for Activity: initial velocity relative to S-protein (50 ng) plus S15 (10 μg) = 100%, consecutive addition of S-protein (50 ng), bS15 (approx. 5 μg), streptavidin (10 μg), S15 (5 μg), 75 ug/mL yeast RNA, pH 7.0, 25° C., 2 minutes. The protocol: Ribonuclease S activity was measured in terms of degradation of yeast polymeric RNA. Degradation was monitored as an increase in absorbance at 255 nm of the reaction cocktail. The reaction cocktail included 50 mM imidazole.HCl buffer, pH 7.0, 0.1 M NaCl, and 75 ug/mL yeast RNA, in a volume of 800 uL. The change in absorbance was monitored at 25° C. for 2 minutes following the consecutive addition of S-protein (50 ng), bS15 (approx. 5 μg), streptavidin (10 μg), and authentic S15 (5 μg).
For comparison, the degradative activity in a reaction mix containing S-protein (50 ng) plus S15 (10 μg) is defined to be 100%. […] The initial velocity of each reaction was determined from the initial slope of a plot of absorbance v. time.

Some results are limits rather than exact numbers.

Consider “S15: truncated S-peptide formed from the first 15 residues of the S-peptide, SEQ ID NO:1 (KETAAAKFERQHMDS)”, for which the “binding to S-protein compared with intact S-peptide” value in assay [1] (truncated S-peptide, first 15 residues) was “binds equally well”. In assay [2], the “effect on RNase S activity (in words)” value is recorded as “RNase S activity could be reconstituted” and the Activity is listed as 40%.
Regarding streptavidin, in assay [2], the “effect on RNase S activity (in words)” value is listed as “sufficient to inactivate RNase S” and the Activity is given as below 0.01%.
For the substance “S-peptide: residues 1-20 of RNase A, subtilisin cleavage product”, the Kd in assay [1] (S-peptide and S-protein, read-out: dissociation constant) was 1 nM.

(Values after patent US5817455A, “Method for in vitro inactivation of RNase S” (Novagen, Inc., priority 1996, dated 1998).)
